Experimental data taken from patent publication US11306071B2, “Heterocyclic compounds as adenosine antagonists” (Nuvation Bio Inc., priority 2019, dated 2022).

Tests used:
[1] = target: adenosine A1 (human) membrane (Homo sapiens (Human), UniProt P30542); assay: A1 adenosine receptor radioligand binding assay ([3H] DPCPX); settings: 200 nM compound; radioligand [3H] DPCPX 1 nM
Description: A second A1 adenosine receptor radioligand binding assay protocol was used. The protocol used adenosine A1 (human) membrane (PerkinElmer ES-010-M400UA) at a concentration of 2.5 μg/well/100 μl and the radioligand [3H] DPCPX (Cat No. PerkinElmer-NET974250UC) at a final concentration of 1 nM. Testing compounds were tested at a final concentration of 200 nM. CGS-15943, the reference compound, was tested in an 8-point 4-fold serial dilution, starting at a top concentration of 1 μM. 1 μl of compounds/high control/low control was transferred to the assay plate according to a plate map, followed by 100 μl of membrane stocks and 100 μl of radioligand, in assay buffer (25 mM HEPES, 5 mM MgCl2, 1 mM CaCl2, 100 mM NaCl, pH 7.4). The plate was sealed and incubated at RT for 1 hour. Unifilter-96 GF/C filter plates (Perkin Elmer Cat #6005174) were soaked with 50 μl of 0.3% PEI per well for at least 0.5 hour at room temperature. When the binding assays were completed, the reaction mixtures were filtered through GF/C plates using Perkin Elmer Filtermate Harvester, and each plate washed 4 times with cold wash buffer (25 mM HEPES, 5 mM MgCl2, 1 mM CaCl2, 100 mM NaCl, pH 7.4). The filter plates were dried for 1 hour at 50 degrees. After drying, the bottom of the filter plate wells was sealed, 50 μl of Perkin Elmer Microscint 20 cocktail was added, and the top of the filter plate was sealed. ^3H trapped on the filter was counted using Perkin Elmer MicroBeta2 Reader. The data were analyzed with GraphPad Prism 5 to obtain binding IC50 values for the reference compound. The “Inhibition [% Control]” was calculated using the equation: % Inh=(1-Background subtracted Assay value/Background subtracted HC value)*100, where HC is high control.

[2] = target: HEK-293 cells expressing human recombinant adenosine A2A receptor (Homo sapiens (Human), UniProt P29274); assay: cAMP assay (Assay 2), A2A receptor; assay type: cell-based
Description: The functional activity of compounds was tested using Assay 2, below, to detect the presence of cAMP. Assay 1 is an alternative assay for this purpose. Activation of G-protein coupled receptors (such as A2A) results in activation of adenylyl cyclase which converts ATP into cAMP which is used as a downstream signaling molecule. Therefore, molecules which act as GPCR (or specifically A2A receptor) antagonists cause a decrease in intracellular cAMP concentration.
Assay 2 (Table B2): This assay used HEK-293 cells expressing human recombinant adenosine A2A receptor (or, alternatively, A1 receptor) that were grown prior to the test in media without antibiotic. 100 nL of test articles at 100x of final concentration were transferred to assay plate by Echo. Cells were washed twice with 5 mL of PBS and 10 μL of cells were mixed with 5 mL PBS. After aspirating the PBS and adding 1.5 mL versine, cells were incubated at 37° C. for 2-5 min. After centrifugation, 4 mL of medium was added and adjusted cell density to 5,000 cells/well with Stimulation Buffer. 10 μL of cells were aliquoted to the assay plate, centrifuged at 1000 rpm for 1 minute, and incubated for 60 minutes at room temperature. 5 μL 4× Eu-cAMP tracer solution and 5 μL 4× Ulight™-anti-cAMP solution were added to assay plate, followed by centrifugation and 60-minute incubation at room temperature. Plates were read on EnVision.

[3] = target: adenosine A2a (human) membrane (Homo sapiens (Human), UniProt P29274); assay: A2A adenosine receptor radioligand binding assay ([3H] CGS-21680); settings: radioligand [3H] CGS-21680 6 nM
Description: A second A2A adenosine receptor radioligand binding assay protocol was used. The protocol used adenosine A2a (human) membrane (PerkinElmer RBHA2AM400UA) at a concentration of 5 μg/well/100 μl and the radioligand [3H] CGS-21680 (Cat No. PerkinElmer-NET1021250UC) at a final concentration of 6 nM. Testing compounds were diluted with DMSO to make 8-point 4-fold serial dilution, starting at 0.2 mM. CGS-15943 was the reference compound. 1 μl of compounds/high control/low control was transferred to the assay plate according to a plate map, followed by 100 μl of membrane stocks and 100 μl of radioligand, in assay buffer (50 mM Tris-HCl, 10 mM MgCl2, 1 mM EDTA, pH 7.4). The plate was sealed and incubated at RT for 2 hours. Unifilter-96 GF/C filter plates (Perkin Elmer Cat #6005174) were soaked with 50 μl of 0.3% PEI per well for at least 0.5 hour at room temperature. When the binding assays were completed, the reaction mixtures were filtered through GF/C plates using Perkin Elmer Filtermate Harvester, and each plate washed 4 times with cold wash buffer (50 mM Tris-HCl, 154 mM NaCl, pH 7.4). The filter plates were dried for 1 hour at 50 degrees. After drying, the bottom of the filter plate wells was sealed, 50 μl of Perkin Elmer Microscint 20 cocktail was added, and the top of the filter plate was sealed. ^3H trapped on the filter was counted using Perkin Elmer MicroBeta2 Reader. The data were analyzed with GraphPad Prism 5 to obtain binding IC50 values. The “Inhibition [% Control]” was calculated using the equation: % Inh=(1-Background subtracted Assay value/Background subtracted HC value)*100, where HC is high control.

adenosine A1 (human) membrane, sequence (P30542 whole entry): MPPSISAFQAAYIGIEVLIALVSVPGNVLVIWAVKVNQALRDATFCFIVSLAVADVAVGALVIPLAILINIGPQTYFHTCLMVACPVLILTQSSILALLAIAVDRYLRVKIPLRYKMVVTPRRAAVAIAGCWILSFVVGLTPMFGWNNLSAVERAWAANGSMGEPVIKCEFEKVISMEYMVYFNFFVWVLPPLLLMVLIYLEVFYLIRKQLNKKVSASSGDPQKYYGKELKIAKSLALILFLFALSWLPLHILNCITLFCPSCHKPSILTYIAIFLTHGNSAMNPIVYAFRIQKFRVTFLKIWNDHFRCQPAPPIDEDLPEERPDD
adenosine A2a (human) membrane, sequence (P29274 whole entry): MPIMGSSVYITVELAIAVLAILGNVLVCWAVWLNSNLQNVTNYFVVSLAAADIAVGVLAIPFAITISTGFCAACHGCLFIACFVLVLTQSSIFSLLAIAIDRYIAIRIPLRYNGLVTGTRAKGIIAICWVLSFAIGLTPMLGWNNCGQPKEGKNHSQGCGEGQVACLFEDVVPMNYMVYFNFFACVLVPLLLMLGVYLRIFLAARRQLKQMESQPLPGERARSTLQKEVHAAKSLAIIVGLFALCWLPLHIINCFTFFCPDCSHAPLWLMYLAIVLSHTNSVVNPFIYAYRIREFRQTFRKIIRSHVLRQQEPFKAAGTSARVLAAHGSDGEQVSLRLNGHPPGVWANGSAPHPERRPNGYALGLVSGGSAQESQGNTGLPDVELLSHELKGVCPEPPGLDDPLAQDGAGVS
HEK-293 cells expressing human recombinant adenosine A2A receptor, sequence (P29274 whole entry): as above

Work on `Cc1c(C#N)cccc1-c1nc(N)cnc1-c1cc(Cl)c2ncccc2c1` [2-2, 3-(6-amino-3-(8-chloroquinolin-6-yl)pyrazin-2-yl)-2-methylbenzonitrile] yielded an inhibition at 0.2 µM [1] of 30% and an IC50 [2] of 327 nM.
`N#Cc1cccc(-c2nc(N)cnc2-c2cc(Cl)c3[nH]ncc3c2)c1` [Compound No. 2-7, 3-(6-amino-3-(7-chloro-1H-indazol-5-yl)pyrazin-2-yl)benzonitrile] gave an inhibition at 0.2 µM [1] of 81% and an IC50 [2] of 130 nM.
`N#Cc1cc(-c2nc(N)cnc2-c2cc(Cl)c3ncccc3c2)ccc1F` [Compound No. 2-13, 5-(6-amino-3-(8-chloroquinolin-6-yl)pyrazin-2-yl)-2-fluorobenzonitrile] showed an inhibition at 0.2 µM [1] of 54% and an IC50 [2] of 527 nM.
Work on `CC(NC(=O)c1nc(-c2cc(Cl)c3ncccc3c2)c(-c2ccn(C)n2)nc1N)c1cccc(C#N)n1` (centres unmarked) [Compound No. 99, 3-amino-6-(8-chloroquinolin-6-yl)-N-(1-(6-cyanopyridin-2-yl)ethyl)-5-(1-methyl-1H-pyrazol-3-yl)pyrazine-2-carboxamide] yielded an IC50 [2] of 72 nM.
With `CC(NC(=O)c1nc(-c2ccc3ncccc3c2)c(-c2ccccc2)nc1N)c1cccc(C#N)n1` (centres unmarked) [Compound No. 111, 3-amino-N-(1-(6-cyanopyridin-2-yl)ethyl)-5-phenyl-6-(quinolin-6-yl)pyrazine-2-carboxamide] the IC50 [3] was 3.9 nM and the inhibition at 0.2 µM [1] was 92%.
Compound `C[C@@H](NC(=O)c1nc(-c2cc(Cl)c3[nH]ncc3c2)c(-c2ccn(C)n2)nc1N)c1ccccn1` [Compound No. 112, (R)-3-amino-6-(7-chloro-1H-indazol-5-yl)-5-(1-methyl-1H-pyrazol-3-yl)-N-(1-(pyridin-2-yl)ethyl)pyrazine-2-carboxamide] has an IC50 [3] of 1.6 nM and an inhibition at 0.2 µM [1] of 77%.
For `C[C@@H](NC(=O)c1nc(-c2cc(Cl)c3ncccc3c2)c(-c2ccccc2)nc1N)c1ccccn1` [Compound No. 113, (R)-3-amino-6-(8-chloroquinolin-6-yl)-5-phenyl-N-(1-(pyridin-2-yl)ethyl)pyrazine-2-carboxamide], the IC50 [3] was 4.7 nM and the inhibition at 0.2 µM [1] was 58%.
For `CC(NC(=O)c1nc(-c2cc(Cl)c3ncccc3c2)c(-c2ccccc2)nc1N)c1cccc(C#N)n1` (centres unmarked) [Compound No. 114, 3-amino-6-(8-chloroquinolin-6-yl)-N-(1-(6-cyanopyridin-2-yl)ethyl)-5-phenylpyrazine-2-carboxamide], the IC50 [3] was 3.5 nM and the inhibition at 0.2 µM [1] was 95%.
`C[C@@H](NC(=O)c1nc(-c2ccc3ncccc3c2)c(-c2ccccc2)nc1N)c1cccc(C#N)n1` [Compound No. 115, (R)-3-amino-N-(1-(6-cyanopyridin-2-yl)ethyl)-5-phenyl-6-(quinolin-6-yl)pyrazine-2-carboxamide] gave an IC50 [3] of 64 nM and an inhibition at 0.2 µM [1] of 74%.
For `C[C@H](NC(=O)c1nc(-c2ccc3ncccc3c2)c(-c2ccccc2)nc1N)c1cccc(C#N)n1` [Compound No. 116, (S)-3-amino-N-(1-(6-cyanopyridin-2-yl)ethyl)-5-phenyl-6-(quinolin-6-yl)pyrazine-2-carboxamide], the IC50 [3] was 5.4 nM and the inhibition at 0.2 µM [1] was 98%.
With `C[C@@H](NC(=O)c1nc(-c2ccc3ncccc3c2)c(-c2cccc(C#N)c2)nc1N)c1cccc(C#N)n1` [Compound No. 117, (R)-3-amino-5-(3-cyanophenyl)-N-(1-(6-cyanopyridin-2-yl)ethyl)-6-(quinolin-6-yl)pyrazine-2-carboxamide] the IC50 [3] was 269 nM and the inhibition at 0.2 µM [1] was 56%.
Compound `C[C@H](NC(=O)c1nc(-c2ccc3ncccc3c2)c(-c2cccc(C#N)c2)nc1N)c1cccc(C#N)n1` [Compound No. 118, (S)-3-amino-5-(3-cyanophenyl)-N-(1-(6-cyanopyridin-2-yl)ethyl)-6-(quinolin-6-yl)pyrazine-2-carboxamide] has an IC50 [3] of 16 nM and an inhibition at 0.2 µM [1] of 92%.
In the case of `CC(NC(=O)c1nc(-c2cc(Cl)c3ncccc3c2)c(-c2ccccc2)nc1N)c1ccccn1` (centres unmarked) [Compound No. 119, 3-amino-6-(8-chloroquinolin-6-yl)-5-phenyl-N-(1-(pyridin-2-yl)ethyl)pyrazine-2-carboxamide], the IC50 [3] is reported as 12 nM and the “A1 binding inhibition at 200 nM (%)” value [1] is reported as 92%.
`CC(NC(=O)c1nc(-c2ccc3ncccc3c2)c(-c2ccccc2)nc1N)c1ncccn1` (centres unmarked) [Compound No. 120, 3-amino-5-phenyl-N-(1-(pyrimidin-2-yl)ethyl)-6-(quinolin-6-yl)pyrazine-2-carboxamide] was tested, and the IC50 [3] was 6.8 nM and the inhibition at 0.2 µM [1] was 45%.
`C[C@@H](NC(=O)c1nc(-c2cc(Cl)c3ncccc3c2)c(-c2ccccc2)nc1N)c1cccc(C#N)n1` [Compound No. 121, (R)-3-amino-6-(8-chloroquinolin-6-yl)-N-(1-(6-cyanopyridin-2-yl)ethyl)-5-phenylpyrazine-2-carboxamide] showed an IC50 [3] of 1.1 nM and an inhibition at 0.2 µM [1] of 80%.
For `C[C@@H](NC(=O)c1nc(-c2cc(Cl)c3ncccc3c2)c(-c2ccccc2)nc1N)c1ccccn1` [Compound No. 123, (R)-3-amino-6-(8-chloroquinolin-6-yl)-5-phenyl-N-(1-(pyridin-2-yl)ethyl)pyrazine-2-carboxamide], the IC50 [3] was 1.1 nM and the “A1 binding inhibition at 200 nM (%)” value [1] was 89%.
`CC(NC(=O)c1nc(-c2ccc3ncccc3c2)c(-c2ccn(C)n2)nc1N)c1cccc(C#N)n1` (centres unmarked) [Compound No. 127, 3-amino-N-(1-(6-cyanopyridin-2-yl)ethyl)-5-(1-methyl-1H-pyrazol-3-yl)-6-(quinolin-6-yl)pyrazine-2-carboxamide] was tested, and the IC50 [3] was 3.9 nM and the inhibition at 0.2 µM [1] was 84%.
Compound `C[C@H](NC(=O)c1nc(-c2ccc3ncccc3c2)c(-c2ccccc2)nc1N)c1cnccn1` [Compound No. 129, (S)-3-amino-5-phenyl-N-(1-(pyrazin-2-yl)ethyl)-6-(quinolin-6-yl)pyrazine-2-carboxamide] has an IC50 [3] of 3.9 nM and an inhibition at 0.2 µM [1] of 61%.
`CC(NC(=O)c1nc(-c2ccc3ncccc3c2)c(-c2ccn(C)n2)nc1N)c1ccccn1` (centres unmarked) [Compound No. 459, 3-amino-5-(1-methyl-1H-pyrazol-3-yl)-N-(1-(pyridin-2-yl)ethyl)-6-(quinolin-6-yl)pyrazine-2-carboxamide] showed an IC50 [3] of 4.7 nM.
`CC(NC(=O)c1nc(-c2ccc3ncccc3c2)c(-c2ccn(C)n2)nc1N)c1ncccn1` (centres unmarked) [Compound No. 460, 3-amino-5-(1-methyl-1H-pyrazol-3-yl)-N-(1-(pyrimidin-2-yl)ethyl)-6-(quinolin-6-yl)pyrazine-2-carboxamide] showed an IC50 [3] of 7.3 nM.
`CCN(CC)CCNc1nc(-c2ccc3ncccc3c2)c(-c2ccccc2)nc1N` [compound 1, N2-(2-(diethylamino)ethyl)-5-phenyl-6-(quinolin-6-yl)pyrazine-2,3-diamine] showed an IC50 [2] of 262 nM.
